*1 amine or outer side, *2 acyl side, *3 side chain or, on linkers, in order; H or OH if unused. Where a SMILES comes first, the peptide text is derived from it. Bridges are numbered along the chain shown (N, C = ends). [ ]: non-standard residue; d: D form. ξ: configuration not given here. Trp(1-CH2COOH) = N[C@@H](Cc1cn(CC(=O)O)c2ccccc12)C(=O)O; Phe(3,4,5-F3) = N[C@@H](Cc1cc(F)c(F)c(F)c1)C(=O)O; Pro(4R-NH2) = N[C@H]1CN[C@H](C(=O)O)C1; d(cisHyp) = O=C(O)[C@H]1C[C@@H](O)CN1; Bta = N[C@@H](Cc1csc2ccccc12)C(=O)O; NMeY = CN[C@@H](Cc1ccc(O)cc1)C(=O)O; Hyp = O=C(O)[C@@H]1C[C@@H](O)CN1; NMeF = CN[C@@H](Cc1ccccc1)C(=O)O; X1 = O=C([C@H]1COCCN1[*:1])[*:2]; dHyp = O=C(O)[C@H]1C[C@H](O)CN1; NMeNle = CCCC[C@H](NC)C(=O)O; Tle = CC(C)(C)[C@H](N)C(=O)O; hSer = N[C@@H](CCO)C(=O)O; NMeA = CN[C@@H](C)C(=O)O; Orn = NCCC[C@H](N)C(=O)O; Dab = NCC[C@H](N)C(=O)O; Dap = NC[C@H](N)C(=O)O; ξC = NC(CS)C(=O)O

The experiment deals with T1, Human PD-L1/PD-1 (Homo sapiens, UniProt Q9NZQ7).
T1 construct: TVMV protease cleavage site (C); made in house; host or cells: HEK293T cells
T1 sequence (Q9NZQ7 with tags, fused parts or gaps): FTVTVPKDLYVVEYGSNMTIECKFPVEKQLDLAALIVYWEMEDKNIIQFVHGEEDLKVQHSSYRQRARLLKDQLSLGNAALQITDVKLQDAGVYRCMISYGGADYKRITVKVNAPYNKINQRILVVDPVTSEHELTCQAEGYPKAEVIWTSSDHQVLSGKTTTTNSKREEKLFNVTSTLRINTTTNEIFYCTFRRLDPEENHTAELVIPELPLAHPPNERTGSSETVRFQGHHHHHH
Briefly: HTRF Human PD-L1/PD-1 binding assay (PD-1-Ig/PD-L1-His). Conditions: PD-L1-His 10 nM, PD-1-Ig 20 nM; class symbol; read-out: HTRF Human PD-L1/PD-1 Binding Assay IC50 Range. The method, boiled down: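 Step 1: compound with PD-L1-His (10 nM final), 15 min. Step 2: PD-1-Ig (20 nM final), 15 min. Step 3: Eu-cryptate anti-Ig (1 nM) plus APC anti-His (20 nM), 30 min equilibration. Signal taken as 665 nm/620 nm ratio.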
Take `CCCC[C@H]1C(=O)N(C)[C@@H](CCCC)C(=O)N[C@@H](CCCNC(=N)N)C(=O)N[C@H](C(=O)NCC(N)=O)CSCC(=O)N[C@@H](Cc2ccc(O)cc2)C(=O)N(C)[C@@H](C)C(=O)N[C@@H](CC(N)=O)C(=O)N2CCC[C@H]2C(=O)N[C@@H](CCN)C(=O)N[C@@H](CC(C)C)C(=O)N2C[C@H](O)C[C@H]2C(=O)N[C@@H](Cc2c[nH]c3ccccc23)C(=O)N[C@@H](C(C)(C)C)C(=O)N[C@@H](Cc2c[nH]c3ccccc23)C(=O)N1C` [Example 11001] ({CH2CO}-Y[NMeA]NP[Dab]L[Hyp]W[Tle]W[NMeNle][NMeNle]RCG-NH2; thioether N-14): the IC50 is 10 to 99.9 nM. With `CCCC[C@H]1C(=O)N(C)[C@@H](CCCC)C(=O)N[C@@H](CC(C)C)C(=O)N[C@H](C(=O)NCC(N)=O)CSCC(=O)N[C@@H](Cc2ccc(O)cc2)C(=O)N(C)[C@@H](C)C(=O)N[C@@H](CC(=O)O)C(=O)N2CCC[C@H]2C(=O)N[C@@H](Cc2cnc[nH]2)C(=O)N[C@@H](CCCCN)C(=O)N2C[C@H](O)C[C@H]2C(=O)N[C@@H](Cc2c[nH]c3ccccc23)C(=O)N[C@@H](CCCCN)C(=O)N[C@@H](Cc2cn(CC(=O)O)c3ccccc23)C(=O)N1C` [Example 6156] ({CH2CO}-Y[NMeA]DPHK[Hyp]WK[Trp(1-CH2COOH)][NMeNle][NMeNle]LCG-NH2; thioether N-14), the IC50 lay in the range of 1 to 9.9 nM.

With `CCCC[C@H]1C(=O)N(C)[C@@H](CCCC)C(=O)N[C@@H](CCC(=O)O)C(=O)N[C@H](C(=O)NCC(N)=O)CSCC(=O)N[C@@H](Cc2ccc(OC)cc2)C(=O)N(C)[C@@H](C)C(=O)N[C@@H](CCN)C(=O)N2CCC[C@H]2C(=O)N[C@@H](CN)C(=O)N[C@@H](CCC(=O)O)C(=O)N2C[C@H](O)C[C@H]2C(=O)N[C@@H](Cc2c[nH]c3ccccc23)C(=O)N[C@@H](CC(=O)O)C(=O)N[C@@H](Cc2c[nH]c3ccccc23)C(=O)N1C` [Example 7114] ({CH2CO}-Y(Me)[NMeA][Dab]P[Dap]E[Hyp]WDW[NMeNle][NMeNle]ECG-NH2; thioether N-14), the IC50 was in the range of 100 to 990 nM. For `CCCC[C@H]1C(=O)N2CCOC[C@@H]2C(=O)N[C@@H](CC(=O)O)C(=O)N[C@@H](C(C)C)C(=O)N(C)[C@@H](Cc2ccccc2)C(=O)N[C@@H](CCC(=O)O)C(=O)N2C[C@@H](O)C[C@@H]2C(=O)N[C@@H](Cc2c[nH]c3ccccc23)C(=O)N[C@@H](Cc2ccc(O)cc2)C(=O)N[C@@H](CCCN)C(=O)N[C@H](C(=O)NCC(N)=O)CSCC(=O)N[C@@H](Cc2cc(F)c(F)c(F)c2)C(=O)N(C)[C@@H](Cc2ccccc2)C(=O)N1C` [Example 9280] ({CH2CO}-[Phe(3,4,5-F3)][NMeF][NMeNle][X1]DV[NMeF]E[dHyp]WY[Orn]CG-NH2; thioether N-13), the IC50 lay in the range of 10 to 99.9 nM. The result for `CCCC[C@H]1C(=O)N(C)[C@@H](CCCC)C(=O)N[C@@H](CN)C(=O)N[C@H](C(=O)NCC(N)=O)CSCC(=O)N[C@@H](Cc2ccc(O)cc2)C(=O)N(C)[C@@H](C)C(=O)N[C@@H](CC(N)=O)C(=O)N2CCC[C@H]2C(=O)N[C@@H](Cc2c[nH]cn2)C(=O)N[C@@H](CC(C)C)C(=O)N2CCC[C@H]2C(=O)N[C@@H](Cc2c[nH]c3ccccc23)C(=O)N[C@@H](CO)C(=O)N[C@@H](Cc2c[nH]c3ccccc23)C(=O)N1C` [Example 5182] reads 10 to 99.9 nM.

Consider `CCCC[C@H]1C(=O)N2C[C@H](O)C[C@@H]2C(=O)N[C@@H](CC(=O)O)C(=O)N[C@@H](C(C)C)C(=O)N(C)[C@@H](Cc2ccccc2)C(=O)N[C@@H](Cc2ccc(O)cc2)C(=O)N2CCC[C@@H]2C(=O)N[C@@H](Cc2c[nH]c3ccccc23)C(=O)N[C@@H](Cc2ccc(O)cc2)C(=O)N[C@@H](CCOC)C(=O)N[C@H](C(=O)NCC(N)=O)CSCC(=O)N[C@@H](Cc2cc(F)c(F)c(F)c2)C(=O)N(C)[C@@H](Cc2ccccc2)C(=O)N1C` [Example 10186] ({CH2CO}-[Phe(3,4,5-F3)][NMeF][NMeNle][d(cisHyp)]DV[NMeF]Y[dP]WY[hSer](Me)CG-NH2; thioether N-13), for which the IC50 lay in the range of 10 to 99.9 nM. For the molecule `CCCC[C@H]1C(=O)N(C)[C@@H](CCCC)C(=O)N[C@@H](CCCNC(=N)N)C(=O)NC(C(=O)NCC(N)=O)CSCC(=O)N[C@@H](Cc2ccc(O)cc2)C(=O)N(C)[C@@H](C)C(=O)N[C@@H](CC(N)=O)C(=O)N2CCC[C@H]2C(=O)N[C@@H](CCO)C(=O)N[C@@H](CO)C(=O)N2CCC[C@H]2C(=O)N[C@@H](Cc2c[nH]c3ccccc23)C(=O)N[C@@H](CO)C(=O)N[C@@H](Cc2c[nH]c3ccccc23)C(=O)N1C` (stereo partly drawn) [Example 10034] ({CH2CO}-Y[NMeA]NP[hSer]SPWSW[NMeNle][NMeNle]R[ξC]G-NH2; thioether N-14), the IC50 lay within 1 to 9.9 nM.

`CCCC[C@H]1C(=O)N2CCC[C@@H]2C(=O)N[C@@H](CC(=O)O)C(=O)N[C@@H](C(C)C)C(=O)N(C)[C@@H](Cc2ccccc2)C(=O)N[C@@H](CC(=O)O)C(=O)N2CCC[C@@H]2C(=O)N[C@@H](Cc2c[nH]c3ccccc23)C(=O)N[C@@H](Cc2ccc(O)cc2)C(=O)N[C@@H](CCCCN)C(=O)N[C@H](C(=O)NCC(N)=O)CSCC(=O)N[C@@H](Cc2cc(F)c(F)c(F)c2)C(=O)N(C)[C@@H](Cc2ccccc2)C(=O)N1C` [Example 10171] ({CH2CO}-[Phe(3,4,5-F3)][NMeF][NMeNle][dP]DV[NMeF]D[dP]WYKCG-NH2; thioether N-13): the IC50 was 10 to 99.9 nM.

On to `CCCC[C@H]1C(=O)N2C[C@H](O)C[C@@H]2C(=O)N2C[C@H](N)C[C@H]2C(=O)N[C@@H](C(C)C)C(=O)N(C)[C@@H](Cc2ccccc2)C(=O)N[C@@H](CCC(=O)O)C(=O)N2CCOC[C@@H]2C(=O)N[C@@H](Cc2c[nH]c3ccccc23)C(=O)N[C@@H](Cc2ccc(O)cc2)C(=O)N[C@@H](CC(C)C)C(=O)N[C@H](C(=O)NCC(N)=O)CSCC(=O)N[C@@H](Cc2cc(F)c(F)c(F)c2)C(=O)N(C)[C@@H](Cc2ccccc2)C(=O)N1C` [Example 3216] ({CH2CO}-[Phe(3,4,5-F3)][NMeF][NMeNle][d(cisHyp)][Pro(4R-NH2)]V[NMeF]E[X1]WYLCG-NH2; thioether N-13), for which the IC50 fell in the range of 10 to 99.9 nM. Take `CCCC[C@H]1C(=O)N2CCC[C@@H]2C(=O)N[C@@H](CC(=O)O)C(=O)N[C@@H](C(C)C)C(=O)N(C)[C@@H](Cc2ccccc2)C(=O)N[C@@H](CCC(=O)O)C(=O)N2CCOC[C@@H]2C(=O)N[C@@H](Cc2c[nH]c3ccccc23)C(=O)N[C@@H](Cc2ccc(O)cc2)C(=O)N[C@@H](CN)C(=O)N[C@H](C(=O)NCC(N)=O)CSCC(=O)N[C@@H](Cc2cc(F)c(F)c(F)c2)C(=O)N(C)[C@@H](Cc2ccc(O)cc2)C(=O)N1C` [Example 10617] ({CH2CO}-[Phe(3,4,5-F3)][NMeY][NMeNle][dP]DV[NMeF]E[X1]WY[Dap]CG-NH2; thioether N-13): the IC50 fell in the range of 10 to 99.9 nM. `CCCC[C@H]1C(=O)N2C[C@H](O)C[C@@H]2C(=O)N[C@@H](CC(=O)O)C(=O)N[C@@H](C(C)C)C(=O)N(C)[C@@H](Cc2ccccc2)C(=O)N[C@@H](CC(N)=O)C(=O)N2C[C@H](O)C[C@@H]2C(=O)N[C@@H](Cc2c[nH]c3ccccc23)C(=O)N[C@@H](Cc2ccc(O)cc2)C(=O)N[C@@H](CCCN)C(=O)N[C@H](C(=O)NCC(N)=O)CSCC(=O)N[C@@H](Cc2cc(F)c(F)c(F)c2)C(=O)N(C)[C@@H](Cc2ccccc2)C(=O)N1C` [Example 9363] ({CH2CO}-[Phe(3,4,5-F3)][NMeF][NMeNle][d(cisHyp)]DV[NMeF]N[d(cisHyp)]WY[Orn]CG-NH2; thioether N-13): the IC50 fell in the range of 1 to 9.9 nM. As to `CCCC[C@H]1C(=O)N(C)[C@@H](CCCC)C(=O)N[C@@H](CCCNC(=N)N)C(=O)NC(C(=O)NCC(N)=O)CSCC(=O)N[C@@H](Cc2ccc(O)cc2)C(=O)N(C)[C@@H](C)C(=O)N[C@@H](CC(N)=O)C(=O)N2CCC[C@H]2C(=O)N[C@@H](CCO)C(=O)N[C@@H](CCO)C(=O)N2CCC[C@H]2C(=O)N[C@@H](Cc2c[nH]c3ccccc23)C(=O)N[C@@H](CO)C(=O)N[C@@H](Cc2csc3ccccc23)C(=O)N1C` (stereo partly drawn) [Example 10019] ({CH2CO}-Y[NMeA]NP[hSer][hSer]PWS[Bta][NMeNle][NMeNle]R[ξC]G-NH2; thioether N-14), the IC50 is 10 to 99.9 nM.

Turning to `CCCC[C@H]1C(=O)N(C)[C@@H](CCCC)C(=O)N[C@@H](C)C(=O)N[C@H](C(=O)NCC(N)=O)CSCC(=O)N[C@@H](Cc2ccc(O)cc2)C(=O)N(C)[C@@H](C)C(=O)N[C@@H](CC(=O)O)C(=O)N2CCC[C@H]2C(=O)N[C@@H](Cc2cnc[nH]2)C(=O)N[C@@H](CCCN)C(=O)N2C[C@H](O)C[C@H]2C(=O)N[C@@H](Cc2c[nH]c3ccccc23)C(=O)N[C@@H](CO)C(=O)N[C@@H](Cc2cn(CC(=O)O)c3ccccc23)C(=O)N1C` [Example 6249] ({CH2CO}-Y[NMeA]DPH[Orn][Hyp]WS[Trp(1-CH2COOH)][NMeNle][NMeNle]ACG-NH2; thioether N-14), the IC50 was in the range of 1 to 9.9 nM. With `CCCC[C@H]1C(=O)N(C)[C@@H](CCCC)C(=O)N[C@@H](CC(C)C)C(=O)N[C@H](C(=O)NCC(N)=O)CSCC(=O)N[C@@H](Cc2ccc(O)cc2)C(=O)N(C)[C@@H](C)C(=O)N[C@@H](CC(N)=O)C(=O)N2CCC[C@H]2C(=O)N[C@@H](CC(N)=O)C(=O)N[C@@H](CCC(N)=O)C(=O)N2C[C@H](O)C[C@H]2C(=O)N[C@@H](Cc2c[nH]c3ccccc23)C(=O)N[C@@H](CCN)C(=O)N[C@@H](Cc2cn(CC(=O)O)c3ccccc23)C(=O)N1C` [Example 6118] ({CH2CO}-Y[NMeA]NPNQ[Hyp]W[Dab][Trp(1-CH2COOH)][NMeNle][NMeNle]LCG-NH2; thioether N-14), the IC50 was 1 to 9.9 nM. Then `CCCC[C@H]1C(=O)N(C)[C@@H](CCCC)C(=O)N[C@@H](CCCNC(=N)N)C(=O)NC(C(=O)NCC(N)=O)CSCC(=O)N[C@@H](Cc2ccc(O)cc2)C(=O)N(C)[C@@H](C)C(=O)N[C@@H](Cc2cnc[nH]2)C(=O)N2CCC[C@H]2C(=O)N[C@@H](CC(N)=O)C(=O)N[C@@H](CC(C)C)C(=O)N2CCC[C@H]2C(=O)N[C@@H](Cc2c[nH]c3ccccc23)C(=O)N[C@@H](CO)C(=O)N[C@@H](Cc2csc3ccccc23)C(=O)N1C` (stereo partly drawn) [Example 9145] ({CH2CO}-Y[NMeA]HPNLPWS[Bta][NMeNle][NMeNle]R[ξC]G-NH2; thioether N-14), with 1 to 9.9 nM.

For the origin of these results see patent US10538555B2, “Macrocyclic inhibitors of the PD-1/PD-L1 and CD80(B7-1)/PD-L1 protein/protein interactions” (BRISTOL-MYERS SQUIBB COMPANY, priority 2014, dated 2020).
